# Test results: US11739053B2, “P62-ZZ chemical inhibitor” (ID4PHARMA, LLC, priority 2011, dated 2023)
# Legend:
# [1] = test system: CD138(+) primary myeloma cells; assay: CD138(+) primary myeloma cell proliferation, MTT assay; format: cell-based, human; settings: 48 h, FIG. 4B
# Description: FIG. 4A-C: 4A. Effect of p62-ZZ inhibitor #3 on myeloma cell growth. MM cell growth was assayed by MTT assay. Data are shown as mean±SD (n=5). FIG. 4B. MTT assay of CD138(+) primary myeloma cells. Data are shown as mean±SD (n=5). FIG. 4C. Effects of p62-ZZ inhibitors on human stromal cell growth. Primary human stromal cells (5×10^3/well) were cultured with 10 μM of p62-ZZ inhibitor (#1-6) containing 10% FCS in IMDM for 48 hours. Stromal cells growth was assayed by MTT assay. Data are shown as the mean±SD (n=5). *P<0.01 compared to vehicle treated culture. MM1.S (3×10^5 cells/well) or CD138 (+) (1×10^5 cells/well) primary myeloma cells were incubated in 96-well plates in the presence of RPMI-1640-10% FCS and various concentrations of p62-ZZ inhibitor #3 at 37° C. 5% CO2 for 48 h to determine the IC50 for inhibiting myeloma cell proliferation.
# in vivo = settings: mouse, iv
# Description: FIG. 10A-D: 10A. Single dose acute toxicity study by Up/Down Methods. Body weights of the mice following dosing. FIG. 10B. Mean body weights of mice during multidose MTD study. Data are shown as mean±SD for 5 mice. FIG. 10C. Median body weight of mice during multidose MTD study. FIG. 10D. Plasma concentrations p62-ZZ antagonist in pilot mice after 100 mg/kg IV.
# Preliminary in vivo studies of the p62-ZZ antagonist #3 were performed 5 to determine the toxicity, multiple doses MTD and plasma concentration of the antagonist given IV. For the pilot PK study the prototype p62-ZZ antagonist (compound #3) was used as an internal standard for Mass spectroscopy assays.
# VCAM-1 expression = assay: TNF-α induced VCAM-1 expression by marrow stromal cells, Western blot; format: cell-based, human; settings: 3 h pre-treatment, TNFα 48 hours
# Description: FIG. 5A-B: 5A. VCAM-1 expression using Western blot analysis. Normal human stromal cells were cultured with/without TNF and p62-ZZ inhibitors (#1-6) for 48 hours. The cell lysates were collected and VCAM-1 expression was measured using an anti-VCAM-1 antibody (Santa Cruz). FIG. 5B. IL-6 production by human and mouse marrow stromal cells by ELISA. Normal human and mouse marrow stromal cells were cultured with/without TNFα and p62-ZZ inhibitors (#1-6) for 48 hours. The cell culture media were collected and IL-6 production measured using an IL-6 ELISA kit (R &D). Data are shown as the means (n=2). Normal human or mouse marrow stromal cells were maintained in 10% FBS-IMDM and treated with p62-ZZ inhibitors (#1-6) for 3 hours. Then TNFα or vehicle was added for 48 hours. Cell lysates were collected and VCAM-1 expression measured by Western blot using an anti-VCAM-1 antibody (Santa Cruz). The culture media were collected and IL-6 production was measured using an IL-6 ELISA kit (R&D Company).
# MM1.S cells [2] = assay: Reactive oxygen species detection in MM1.S cells; format: cell-based, human; settings: 10 μM, 6 hours
# Description: (§1) FIG. 9A-C: 9A. […] MM1.S cells were cultured with 10 μM of p62-ZZ antagonist for the indicated time, and then cell lysates were collected. Caspase 9, 7 and 3 were detected by Western blotting using anti-caspase 9, 7 and 3 specific antibodies (Cell Signaling). FIG. 9B. Detection of Apoptosis using the TUNEL reaction with MM1.S cells treated with p62-ZZ antagonist. MM1.S cells were treated with 10/μM of p62-ZZ antagonist #3 for 24 hours and then the cells were collected and mounted on glass slides using the cytospin procedure. Terminal deoxynucleotidyl transferase nick end labeling (TUNEL) reactions were conducted using an In Situ Cell Death Detection Kit (Roche) according to the manufacturer's instructions. The stained cells were analyzed using a fluorescence microscope equipped with standard green filter. FIG. 9C. The p62-ZZ antagonist induced Reactive Oxygen Species in MM1.S cells. MM1.S cells were treated with 10 μM of p62-ZZ antagonist #3 for 6 hours. Cells were collected and stained for Reactive Oxygen Species (ROS) using a Total ROS detection kit (Enzo) according to the manufacturer's instructions. The expression of apoptosis markers in p62-ZZ antagonist treated on 25 MM cells was determined to determine the mechanism action of this antagonist.
# MM1.S cells [3] = assay: TUNEL apoptosis detection in MM1.S cells; format: cell-based, human; settings: 10 μM, after 24 hours
# Description: as §1
# [4] = test system: p62 knockout OCL precursors; assay: OCL formation by p62-/- mouse osteoclast precursors, TRACP stain; format: cell-based; settings: 7 days, 50 ng/ml TNFα
# Description: FIG. 7A-C: 7A. CFU-Blast colony formation. Human CD34(+) cells were cultured with p62-ZZ inhibitor #3 and 1 ng/ml of rhIL-3 IL-6 and SCF for 7 days. Data are shown as the mean±SD (n=5). FIG. 7B. Human OCL formation. Non-adherent mononuclear cells (2.5×10^7 cells/10-cm dish) derived from human bone marrow samples were cultured in α-MEM containing 10% FCS, 100 pg/ml recombinant human GM-CSF(R & D) for 7 days. Then the cells were collected and plated (cell density is 1.0×10^6 cells/nil) in α-MEM containing 20% horse serum with 1 ng/ml TNFα. Half-media changes were performed twice a week containing various concentrations of the p62-ZZ inhibitor #3. The cultures were incubated for a total of 2 weeks at 37° C. with 5% CO2 and 95% humidity. The osteoclasts were stained with the 23C6 antibody which recognizes CD51/61. Data are shown as the mean±SD (n=5). *P<0.01 compared to vehicle treated cultures. 7C. OCL formation by wild type and p62−/− mouse osteoclast precursors. Data is shown as the mean±SD (n=4). *: P<0.01 compared to no-inhibitor cultures. The effects of p62-ZZ inhibitor #3 on osteoclast formation by p62^−/− OCL precursors were examined to determine the specificity of the effects of the p62-ZZ inhibitor #3 on osteoclast precursors. CDIIb(+) mononuclear cells from wild type and p62″/_mice were used. […] OCLs were scored as TRAP positive cells containing 3 or more nuclei. […]
smiles,measurement,setting,value
"OCCNCc1ccc(OCc2ccccc2)c(OCc2ccccc2)c1 [Compound 3, 2-[[3,4-bis(phenylmethoxy)phenyl]methylamino]ethanol]",growth of CD138(+) primary myeloma cells (result in words),[1],directly inhibited
same,half-life,in vivo,4 h
same,VCAM-1 expression induced by TNF-α blocked compared to vehicle,VCAM-1 expression,30%
same,reactive oxygen species (ROS) production,MM1.S cells [2],induced reactive oxygen species (ROS) production
same,TUNEL staining of cells,MM1.S cells [3],positive TUNEL staining
same,OCL formation by p62 knockout OCL precursors,[4],did not block
